Measured values taken from ChEMBL document CHEMBL3351965, “Taccalonolide microtubule stabilizers” (Bioorg Med Chem, 2014).

How the values were obtained:
[1] = Half life in phosphate buffer saline; type: physicochemical; conditions: phosphate buffered saline
HeLa = test: Antiproliferative activity against human HeLa cells by SRB assay; type: functional, cell-based

Compound: CC(=O)O[C@@H]1[C@H]2[C@H]3[C@H]([C@H](OC(C)=O)[C@H](OC(C)=O)[C@]2(C)[C@H]2[C@H](C)[C@@H]4O[C@@]45OC(=O)[C@@](C)(O)[C@]5(C)[C@H]12)[C@]1(C)[C@H](C[C@@H]2O[C@@H]2[C@@H]1OC(C)=O)C(=O)[C@@H]3O
- half-life [1]: 9 h

Compound: CC(=O)O[C@@H]1[C@H]2[C@@H]3C(=O)C(O)=C4C[C@@H]5O[C@@H]5[C@H](OC(C)=O)[C@]4(C)[C@H]3[C@H](OC(C)=O)[C@H](OC(C)=O)[C@]2(C)[C@@H]2[C@@H]1[C@]1(C)C(=C[C@H]2C)OC(=O)[C@@]1(C)O
- IC50 (HeLa): 3.4 µM

Compound: CC(=O)O[C@@H]1[C@H]2[C@H]3[C@H]([C@H](OC(C)=O)[C@H](OC(C)=O)[C@]2(C)[C@@H]2[C@@H]1[C@]1(C)C(=C[C@@]2(C)OO)OC(=O)[C@@]1(C)O)[C@]1(C)[C@H](C[C@@H]2O[C@@H]2[C@@H]1OC(C)=O)C(=O)[C@@H]3O
- IC50 (HeLa): > 50 µM

Compound: CC(=O)O[C@@H]1[C@H]2[C@H]3[C@H]([C@H](OC(C)=O)[C@H](OC(C)=O)[C@]2(C)[C@@H]2[C@@H]1[C@]1(C)C(=C[C@H]2C)OC(=O)[C@@]1(C)O)[C@]1(C)[C@H](C[C@@H]2O[C@@H]2[C@@H]1OC(C)=O)C(=O)C3(O)O
- IC50 (HeLa): 5 µM

Compound: CC(=O)O[C@H]1[C@@H]2[C@H]([C@H](C)C=C3OC(=O)[C@@](C)(O)[C@@]32C)[C@]2(C)[C@@H]1C1=C(O)C(=O)[C@H]3C[C@@H]4O[C@@H]4[C@H](OC(C)=O)[C@]3(C)[C@H]1[C@H](OC(C)=O)[C@@H]2OC(C)=O
- IC50 (HeLa): 0.73 µM
